These results are taken from US6706747B2, “Conformationally rigid bicyclic and adamantane derivatives useful as α2-adrenergic blocking agents” (Allergan, Inc., priority 1994, dated 2004).

Read-outs that look alike come from different tables or passages of the source.

The target in one test is α1. Put plainly: Radioligand binding, [3H]prazosin, human cerebral cortex (HCC) membranes. Conditions: 22° C., 30 minutes. Here is the method:
Tissue preparation: Membrane suspensions were prepared from human cerebral cortex (HCC) obtained from the UCI Organ and Tissue Bank and rat kidney cortex (RKC). Briefly, tissues (1 g) were homogenized in 25 ml of iced-cold 5 mM tris, pH 7.4 with a Polytron homogenizer for 30 secs at setting# 7, and centrifuged for. 10-12 minutes at 300×g at 4° C. The supernatant was filtered: through 2 layers of gauze and diluted 1:2 with 50 mM Tris-HCI buffer, pH 7.4, then centrifuged at 49,000×g for 20 minutes. The pellet fraction was washed 3 times (resuspended in Tris-HCl buffer and centrifuged for 20 minutes at 49,000×g). The pellet was then stored at −80° C. until the binding assay.
(§1) Binding studies: The radioligands [^3H]rauwolscine (specific activity 80 Ci/mmol) and [^3H]prazosin (specific activity 76 Ci/mmol) were obtained from New England Nuclear, Boston, Mass. Frozen membrane pellet was resuspended in 25 mM glycine/glycine, pH 7.4 and incubated with radioligand under the following conditions: CHO—C10, CHO—RNG, HT-29-[^3H]rauwolscine, 22° C., 30 minutes; RKC-[^3H]rauwolscine, 0° C., 120 minutes; and, HCC-[^3H]prazosin, 22° C., 30 minutes in a final volume of 500 μl. At the end of the incubation period, the samples were filtered through glass fiber filters (Whatman GF/B) in a 96 well cell harvester and rapidly washed four times with 4 ml of ice-cold 50 mM, Tris-HCl buffer. The filters were then oven dried and transferred to scintillation vials containing 5 ml of Beckman's Ready Protein® scintillation cocktail for counting. […] Protein concentrations were determined with a protein assay kit from Bio Rad. Binding isotherms, equilibrium dissociation and affinity constants were analyzed and determined by the non-linear least squares curve fitting programs AccuFit Competition/Saturation by Beckman.
(§2) Frozen membrane pellet was resuspended either 50 mM tris, 2 mM EGTA, 1 mM MgCl2, pH7.5 (RbKC, RbICB-[^3H]brimonidine); 50 mM tris, 0.5 mM EDTA, 5 mM NaCl, pH 7.7 (RbICB-[^3H]rauwolscine); 25 mM glycine/glycine, pH 7.4 (RtKC, CHO—C10, CH—RNG, HT-29, HCC) or 50 mM tris, 0.1 mM MnCl2, pH7.7 (RtCC). Membrane protein homogenate (75-200 μg) was incubated with radioligand under the following conditions: RbKC and RbICB-[^3H]rauwolscine, 22° C., 45 minutes; RtCC and RbICB-[^3H]brimondine, 22° C., 90 minutes; CHO—C10, CHO—RNG and HT-29-[^3H]rauwolscine, 22° C., 30 minutes; HCC—[^3H]prazosin, 22° C., 30 minutes; and, in a final volume of 250 or 500 μl. At the end of the incubation period, the samples were filtered through glass fiber filters (Whatman GF/B) in a 24 or 96 well cell harvester and rapidly washed four times with 4 mls of iced-cold 50 mM Tris-HCl buffer. The filters were then oven dried and transferred to scintillation vials containing 10 mls of, Beckman's Ready Protein® scintillation cocktail for counting. […] Protein concentrations were determined with a protein assay kit from Bio Rad. Binding isotherms, equilibrium dissociation and affinity constants were analyzed and determined by the non-linear least squares curve fitting programs EBDA (BioSoft) or AccuFit Competition/Saturation by Beckman.
The radioligands [^3H]rauwolscine (specific activity 80 Ci/mmol) and [^3H]prazosin (specific activity 76 Ci/mmol) were obtained from New England Nuclear, Boston, Mass. Frozen membrane pellet was resuspended in 25 mM glycine/glycine, pH 7.4 and incubated with radioligand under the following conditions: CHO—C10, CHO—RNG-[^3H]rauwolscine, 22° C., 30 minutes; and, HCC—[^3H]prazosin, 22° C., 30 minutes in a final volume of 500 ul.

For test [1], the target named is T1, human α2A (CHO-C10) receptor (Homo sapiens, UniProt P08913).
T1 construct: expressed in transfected cells; host or cells: CHO (CHO-C10)
T1 sequence (P08913 1-465): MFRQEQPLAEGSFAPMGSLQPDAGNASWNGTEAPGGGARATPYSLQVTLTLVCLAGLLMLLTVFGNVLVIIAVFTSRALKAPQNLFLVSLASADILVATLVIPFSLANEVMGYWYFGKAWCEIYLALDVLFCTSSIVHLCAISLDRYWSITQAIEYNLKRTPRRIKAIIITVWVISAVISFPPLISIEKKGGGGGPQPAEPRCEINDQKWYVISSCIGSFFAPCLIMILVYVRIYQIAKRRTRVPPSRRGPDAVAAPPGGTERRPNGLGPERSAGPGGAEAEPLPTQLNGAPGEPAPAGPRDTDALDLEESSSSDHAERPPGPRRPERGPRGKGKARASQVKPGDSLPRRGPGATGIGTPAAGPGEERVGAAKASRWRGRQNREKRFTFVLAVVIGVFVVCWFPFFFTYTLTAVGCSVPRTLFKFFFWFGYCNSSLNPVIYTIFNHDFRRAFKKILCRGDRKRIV
In words: Radioligand binding, [3H]rauwolscine, CHO-C10 cell membranes. Conditions: CHO-C10, 22° C., 30 minutes. Here is the method: (§3) Cell preparation: HT-29 and chinese hamster ovary (CHO) cells expressing the human α2A (CHO—C10) receptor and CHO cells (CHO—RNG) expressing the rat α2B adrenoceptor were grown to near confluency in Dulbecco's modified Eagle's medium supplemented with 10% fetal bovine serum using standard cell culture methods. Cells were harvested by scraping and placed into cold buffer of the following composition: 50 mM Tris-HCl, 5 mM EDTA, pH 7.4). Cells were then homogenized with a Polytron homogenizer for 2×10 secs at setting # 7, arid centrifuged for 20 minutes at 49,000×g. The pellet fraction was washed (resuspended in Tris-HCl, pH 8 buffer and centrifuged for 15-20 minutes at 49,000×g) 2 times and stored at −100° C. until binding assay.
as §1, §2
(§4) Cell preparation: Chinese hamster ovary (CHO) cells expressing the human α2A (CHO—C10) and the rat α2B (CHO—RNG) adrenoceptors were grown to near confluency in Dulbecco's modified Eagle's medium supplemented with 10% fetal bovine serum using standard cell culture methods. Cells were harvested by scraping and placed into cold buffer of the following composition: 50 mM Tris-HCl, 5 mM EDTA, pH 7.4). Cells were then homogenized with a Polytron homogenizer for 2×10 secs at setting #7, and centrifuged for 20 minutes at 49,000×g.

Test [2] addresses T2, rat α2B adrenoceptor (CHO-RNG) (Rattus norvegicus, UniProt P19328).
T2 construct: expressed in transfected cells; host or cells: CHO (CHO-RNG)
T2 sequence (P19328 1-453): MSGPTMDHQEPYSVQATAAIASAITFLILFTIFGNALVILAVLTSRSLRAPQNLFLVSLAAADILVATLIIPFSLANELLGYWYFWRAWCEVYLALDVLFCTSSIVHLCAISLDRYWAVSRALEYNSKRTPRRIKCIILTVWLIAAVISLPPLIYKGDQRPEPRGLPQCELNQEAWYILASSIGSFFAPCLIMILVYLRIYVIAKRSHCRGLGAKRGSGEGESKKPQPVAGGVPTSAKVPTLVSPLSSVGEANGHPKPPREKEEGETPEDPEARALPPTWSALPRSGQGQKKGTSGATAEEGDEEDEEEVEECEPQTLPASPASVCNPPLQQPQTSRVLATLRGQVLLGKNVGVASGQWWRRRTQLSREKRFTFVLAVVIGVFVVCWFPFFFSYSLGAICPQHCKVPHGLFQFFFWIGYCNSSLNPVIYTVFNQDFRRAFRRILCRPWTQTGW
Put plainly: Radioligand binding, [3H]rauwolscine, CHO-RNG cell membranes. Conditions: 22° C., 30 minutes. Here is the method:
as §3, §1, §2, §4

[3] abbreviates: read-out: Ki (nM) α2A (CHO-C10).
The mark [4] stands for this setting: read-out: Ki (nM) α2B (CHO-RNG).

As a reminder, the Ki is a dissociation constant, usually derived from enzyme kinetics or from competition with a known ligand. For `c1ccc(CCNC2=NCCO2)cc1`, the Ki on α1 was found to be 11100 nM; in test [1] (setting [3]) it was 1750 nM; in test [2] (setting [4]) it was 4170 nM.

Consider `c1ccc(C2C3CCC(C3)C2NC2=NCCN2)cc1` (centres unmarked), for which the Ki in test [1] (Ki (nM) α2A (CHO-C10)) was found to be 14.3 nM; in test [2] (Ki (nM) α2B (CHO-RNG)), 72 nM.

Turning to `NC1C2CCC(C2)C1c1ccccc1` (centres unmarked), the Ki is 11000 nM at α1, 6570 nM in test [1] (setting [3]) and 6100 nM in test [2] (setting [4]).

With `c1cc2c(cc1C1C3CCC(C3)C1NC1=NCCO1)OCO2` (centres unmarked), the Ki on α1 came out at 1860 nM; in test [1] (setting [3]), 1.1 nM; in test [2] (setting [4]) it was 4.6 nM.

For `CCC1C2CCC(C2)C1NC1=NCCO1` (centres unmarked), the Ki on α1 is 24800 nM; in test [1] (setting [3]), 59 nM; in test [2] (setting [4]), 616 nM.

With `CCC1C2CCC(C2)C1N` (centres unmarked), the Ki on α1 was greater than 100000 nM; in test [1] (setting [3]) it was 67200 nM; in test [2] (setting [4]), 57100 nM.

Turning to `CC(C)C1C2CCC(C2)C1N` (centres unmarked), the results for the Ki (on α1; in test [1] (setting [3]); in test [2] (setting [4])) were greater than 100000 nM, 23300 nM and 20900 nM, respectively.

`CCCC1CCCCC1NC1=NCCO1` (centres unmarked): the values for the inhibitory constant (Ki) (at α1; in test [1] (setting [3]); in test [2] (setting [4])) were 1600 nM, 0.6 nM and 8.3 nM, respectively.

Regarding `C1COC(NC2CC3CCC2C3)=N1` (centres unmarked), the results for the Ki (at α1; in test [1] (setting [3]); in test [2] (setting [4])) were greater than 10000 nM, 4.2 nM and 11.5 nM, respectively.

Turning to `CC1(C)C2CCC1(C)C(NC1=NCCO1)C2` (centres unmarked), the Ki was greater than 10000 nM on α1, 368 nM in test [1] (setting [3]) and 1930 nM in test [2] (setting [4]).

On to `C1COC(NC2CC3CCC2CC3)=N1` (centres unmarked), for which the Ki came to 32500 nM on α1, 119 nM in test [1] (setting [3]) and 770 nM in test [2] (setting [4]).

As to `c1ccc(C2C3CCC(C3)C2NC2=NCCO2)cc1` (centres unmarked) [drawing 7], the Ki at α1 came out at 1860 nM; in test [1] (setting [3]), 3.1 nM; in test [2] (setting [4]), 7.8 nM.

For `c1ccc(C2C3CCC(C3)C2NC2=NCCO2)cc1` (centres unmarked) [drawing 10], the inhibitory constant (Ki) on α1 amounted to 73 nM; in test [1] (setting [3]), 1.9 nM; in test [2] (setting [4]) it was 27 nM.

Consider `CCCC1C2CCC(C2)C1NC1=NCCO1` (centres unmarked) [drawing 17], for which the Ki amounted to 8600 nM on α1, 25 nM in test [1] (setting [3]) and 256 nM in test [2] (setting [4]).

On to `CCCC1C2CCC(C2)C1NC1=NCCO1` (centres unmarked) [drawing 18], for which the Ki at α1 was 8850 nM; in test [1] (setting [3]), 9.8 nM; in test [2] (setting [4]), 28.1 nM.

Turning to `C1COC(NC23CC4CC(CC(C4)C2)C3)=N1` [drawing 26], the inhibition constant (Ki) was greater than 10000 nM at α1, 102 nM in test [1] (setting [3]) and 358 nM in test [2] (setting [4]).

On to `C1COC(NC23CC4CC(CC(C4)C2)C3)=N1` [drawing 27], for which the Ki at α1 was determined as 35000 nM; in test [1] (setting [3]), 352 nM; in test [2] (setting [4]), 1840 nM.
